Test results reported in patent publication US11000033B2, “Ketone or oxime compound, and herbicide” (NISSAN CHEMICAL CORPORATION, priority 2014, dated 2021).

Key:
Format in all cases: in vivo
[1] = system: Chenopodium album; test: Test Example 5: herbicidal effect by foliage application, plastic box (symbol O); details: 320 g/ha, 3 weeks after application
How it was run: (§1)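 Herbicide, formulated as an emulsion and diluted in water, is sprayed onto the aerial parts of 14-day seedlings. These were grown at 25° C. to 30° C. in sterilized diluvial soil; effects are graded after 3 weeks.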

[2] = system: directly sowed rice plant; test: Test Example 3: effect on crop by foliage application, Wagner pot (symbol b); details: application herbicide amount 320 g/ha; for b (directly sowed rice plant) effect on crop grade: Table 24
How it was run: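 Greenhouse culture at 25–30 °C of seeded rice, Cyperus difformis, Leptochloa chinensis and Echinochloa crus-galli var. crus-galli, in alluvial soil held under 0.1–0.5 cm of water in a Wagner pot.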

[3] = system: Veronica persica; test: Test Example 5: herbicidal effect by foliage application, plastic box (symbol R); details: 320 g/ha, 3 weeks after application
How it was run: as §1

[4] = system: rapeseed; test: Test Example 4: effect on crop by soil treatment (symbol g); details: for g: rapeseed, effect grade on crop: 320 g/ha
How it was run: (§2)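 Soil-treatment setup: crop and weed seeds were spot-sown into sterilized diluvial soil, then buried beneath approximately 1.5 cm of it, and the boxes were housed in a 25–30° C. greenhouse.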

[5] = system: rice; test: Test Example 4: effect on crop by soil treatment (symbol b); details: for b: directly sowed rice plant, effect grade on crop: 320 g/ha
How it was run: as §2

[6] = system: Echinochloa crus-galli var. crus-galli; test: Test Example 4: herbicidal effect by soil treatment (symbol H)
How it was run: (§3)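 Seeds were sown in sterilized diluvial soil, covered with about 1.5 cm of soil, and the soil surface was sprayed with a water-diluted emulsion of the compound at a predetermined rate. Plants grew in a greenhouse at 25° C. to 30° C.; effects were scored visually 3 weeks after application.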

[7] = system: Lolium multiflorum Lam.; test: Test Example 4: herbicidal effect by soil treatment (symbol K)
How it was run: as §3

[8] = system: Scirpus juncoides; test: Test Example 1: herbicidal activity, application before weed generation in submerged conditions (symbol B); details: application herbicide amount 320 g/ha
How it was run: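 Steps: alluvial soil flooded to 4 cm; weed seeds sown together; rice seedlings (2.5 leaf) transplanted; diluted emulsion applied to water surface the same day as sowing; plants grown at 25–30 °C in greenhouse; herbicidal effect rated on a 0–5 scale at 3 weeks.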

[9] = system: corn; test: Test Example 5: effect on crop by foliage application, plastic box (symbol c); details: 320 g/ha, 3 weeks after application
How it was run: (§4)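 Greenhouse culture at 25° C. to 30° C. followed spot-like sowing into sterilized diluvial soil, with seed covered by roughly 1.5 cm of soil.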

[10] = system: rapeseed; test: Test Example 5: effect on crop by foliage application, plastic box (symbol g); details: 320 g/ha, 3 weeks after application
How it was run: as §4

[11] = system: Digitaria ciliaris; test: Test Example 4: herbicidal effect by soil treatment (symbol F)
How it was run: as §3

[12] = system: Avena fatua; test: Test Example 4: herbicidal effect by soil treatment (symbol I)
How it was run: as §3

[13] = system: Avena fatua; test: Test Example 5: herbicidal effect by foliage application, plastic box (symbol I); details: 320 g/ha, 3 weeks after application
How it was run: as §1

[14] = system: Chenopodium album; test: Test Example 4: herbicidal effect by soil treatment (symbol O)
How it was run: as §3

[15] = system: Digitaria ciliaris; test: Test Example 5: herbicidal effect by foliage application, plastic box (symbol F); details: 320 g/ha, 3 weeks after application
How it was run: as §1

[16] = system: wheat; test: Test Example 5: effect on crop by foliage application, plastic box (symbol e); details: 320 g/ha, 3 weeks after application
How it was run: as §4

[17] = system: Stellaria media; test: Test Example 5: herbicidal effect by foliage application, plastic box (symbol P); details: 320 g/ha, 3 weeks after application
How it was run: as §1

[18] = application herbicide amount 320 g/ha

Row | SMILES | O: Chenopodium album, herbicidal effect grade [1] | b (directly sowed rice plant) effect on crop grade [2] | R: Veronica persica, herbicidal effect grade [3] | Effect on crop grade, g: rapeseed [4, 18] | Effect on crop grade, b: directly sowed rice plant [5, 18] | Herbicidal effect grade, H: Echinochloa crus-galli var. crus-galli [6, 18] | Herbicidal effect grade, K: Lolium multiflorum Lam. [7, 18] | B (Scirpus juncoides) herbicidal effect grade [8] | c: corn, effect on crop grade [9] | g: rapeseed, effect on crop grade [10] | Herbicidal effect grade, F: Digitaria ciliaris [11, 18] | Herbicidal effect grade, I: Avena fatua [12, 18] | I: Avena fatua, herbicidal effect grade [13] | Herbicidal effect grade, O: Chenopodium album [14, 18] | F: Digitaria ciliaris, herbicidal effect grade [15] | e: wheat, effect on crop grade [16] | P: Stellaria media, herbicidal effect grade [17] | O: Chenopodium album, herbicidal effect (criteria 0-5) [1] | effect on crop b (directly sowed rice plant), grade 0-5 [2] | R: Veronica persica, herbicidal effect (criteria 0-5) [3] | further results
1 | CC#Cc1cc(C)c(C2=C(O)CC(CC(=NOC)C(C)C)C2=O)c(C)c1 (stereo not shown) [9-006] | 2 (Herbicidal ratio of 20% or higher and lower than 40%) | 5 (Herbicidal ratio of 90% or more (almost completely withered)) | 4 (Herbicidal ratio of 70% or higher and lower than 90%) | 3 (Herbicidal ratio of 40% or higher and lower than 70%) | 5 (Herbicidal ratio of 90% or more (almost completely withered)) | 5 (Herbicidal ratio of 90% or more (almost completely withered)) | 5 (Herbicidal ratio of 90% or more (almost completely withered)) | 4 (Herbicidal ratio of 70% or higher and lower than 90%) | 5 (Herbicidal ratio of 90% or more (almost completely withered)) | 4 (Herbicidal ratio of 70% or higher and lower than 90%) | 5 (Herbicidal ratio of 90% or more (almost completely withered)) | 4 (Herbicidal ratio of 70% or higher and lower than 90%) | 4 (Herbicidal ratio of 70% or higher and lower than 90%) | 0 (Herbicidal ratio of 5% or lower (almost no effect)) | 5 (Herbicidal ratio of 90% or more (almost completely withered)) | 5 (Herbicidal ratio of 90% or more (almost completely withered)) | 3 (Herbicidal ratio of 40% or higher and lower than 70%) |  |  |  | 
2 | CON=C(C)CC1CC(OC(=O)CN(C)C(=O)c2ccccc2)=C(c2c(C)cc(C)cc2C)C1=O (stereo not shown) [1-139] |  |  |  |  |  |  |  |  |  |  |  |  |  |  |  |  |  | 1 (Herbicidal ratio of 5% or higher and lower than 20%) | 5 (Herbicidal ratio of 90% or more (almost completely withered)) | 2 (Herbicidal ratio of 20% or higher and lower than 40%) | g: rapeseed, effect grade on crop [4]: 1 (Herbicidal ratio of 5% or higher and lower than 20%); b: directly sowed rice plant, effect grade on crop [5]: 5 (Herbicidal ratio of 90% or more (almost completely withered)); H: Echinochloa crus-galli var. crus-galli, herbicidal effect grade ([6]; 320 g/ha): 5 (Herbicidal ratio of 90% or more (almost completely withered)); K: Lolium multiflorum Lam., herbicidal effect grade ([7]; 320 g/ha): 5 (Herbicidal ratio of 90% or more (almost completely withered)); Herbicidal effect grade, B: Scirpus juncoides [8]: 4 (Herbicidal ratio of 70% or higher and lower than 90%); c: corn, effect on crop (criteria 0-5) [9]: 5 (Herbicidal ratio of 90% or more (almost completely withered)); g: rapeseed, effect on crop (criteria 0-5) [10]: 4 (Herbicidal ratio of 70% or higher and lower than 90%); F: Digitaria ciliaris, herbicidal effect grade ([11]; 320 g/ha): 5 (Herbicidal ratio of 90% or more (almost completely withered)); I: Avena fatua, herbicidal effect grade ([12]; 320 g/ha): 4 (Herbicidal ratio of 70% or higher and lower than 90%); I: Avena fatua, herbicidal effect (criteria 0-5) [13]: 5 (Herbicidal ratio of 90% or more (almost completely withered)); O: Chenopodium album, herbicidal effect grade ([14]; 320 g/ha): 0 (Herbicidal ratio of 5% or lower (almost no effect)); F: Digitaria ciliaris, herbicidal effect (criteria 0-5) [15]: 5 (Herbicidal ratio of 90% or more (almost completely withered)); e: wheat, effect on crop (criteria 0-5) [16]: 5 (Herbicidal ratio of 90% or more (almost completely withered)); P: Stellaria media, herbicidal effect (criteria 0-5) [17]: 3 (Herbicidal ratio of 40% or higher and lower than 70%)
3 | CC#Cc1cc(C)c(C2=C(O)CC(CC(=NOC)C3CC3)C2=O)c(C)c1 (stereo not shown) [9-008] | 3 (Herbicidal ratio of 40% or higher and lower than 70%) | 5 (Herbicidal ratio of 90% or more (almost completely withered)) | 4 (Herbicidal ratio of 70% or higher and lower than 90%) | 4 (Herbicidal ratio of 70% or higher and lower than 90%) | 5 (Herbicidal ratio of 90% or more (almost completely withered)) | 5 (Herbicidal ratio of 90% or more (almost completely withered)) | 5 (Herbicidal ratio of 90% or more (almost completely withered)) | 5 (Herbicidal ratio of 90% or more (almost completely withered)) | 5 (Herbicidal ratio of 90% or more (almost completely withered)) | 4 (Herbicidal ratio of 70% or higher and lower than 90%) | 5 (Herbicidal ratio of 90% or more (almost completely withered)) | 3 (Herbicidal ratio of 40% or higher and lower than 70%) | 4 (Herbicidal ratio of 70% or higher and lower than 90%) | 0 (Herbicidal ratio of 5% or lower (almost no effect)) | 5 (Herbicidal ratio of 90% or more (almost completely withered)) | 5 (Herbicidal ratio of 90% or more (almost completely withered)) | 4 (Herbicidal ratio of 70% or higher and lower than 90%) |  |  |  | 
4 | CON=C(CC1CC(OC(=O)N2CCOCC2)=C(c2c(C)cc(C)cc2OC)C1=O)C1CC1 (mixture of isomers) [13-005] | 0 (Herbicidal ratio of 5% or lower (almost no effect)) | 5 (Herbicidal ratio of 90% or more (almost completely withered)) | 0 (Herbicidal ratio of 5% or lower (almost no effect)) |  |  |  |  | 0 (Herbicidal ratio of 5% or lower (almost no effect)) | 4 (Herbicidal ratio of 70% or higher and lower than 90%) | 3 (Herbicidal ratio of 40% or higher and lower than 70%) |  |  | 5 (Herbicidal ratio of 90% or more (almost completely withered)) |  | 5 (Herbicidal ratio of 90% or more (almost completely withered)) | 5 (Herbicidal ratio of 90% or more (almost completely withered)) | 0 (Herbicidal ratio of 5% or lower (almost no effect)) |  |  |  | g: rapeseed, effect on crop grade [4, 18]: 0 (Herbicidal ratio of 5% or lower (almost no effect)); b: directly sowed rice plant, effect on crop grade [5, 18]: 1 (Herbicidal ratio of 5% or higher and lower than 20%); H: Echinochloa crus-galli var. crus-galli, herbicidal effect grade [6, 18]: 1 (Herbicidal ratio of 5% or higher and lower than 20%); K: Lolium multiflorum Lam., herbicidal effect grade [7, 18]: 5 (Herbicidal ratio of 90% or more (almost completely withered)); F: Digitaria ciliaris, herbicidal effect grade [11, 18]: 4 (Herbicidal ratio of 70% or higher and lower than 90%); I: Avena fatua, herbicidal effect grade [12, 18]: 0 (Herbicidal ratio of 5% or lower (almost no effect)); O: Chenopodium album, herbicidal effect grade [14, 18]: 0 (Herbicidal ratio of 5% or lower (almost no effect))
5 | CC(CC1CC(O)=C(c2c(C)cc(C)cc2C)C1=O)=NOCc1cccc(C(F)(F)F)c1 (stereo not shown) [1-117] |  |  |  |  |  |  |  |  |  |  |  |  |  |  |  |  |  | 0 (Herbicidal ratio of 5% or lower (almost no effect)) | 5 (Herbicidal ratio of 90% or more (almost completely withered)) | 3 (Herbicidal ratio of 40% or higher and lower than 70%) | g: rapeseed, effect grade on crop [4]: 2 (Herbicidal ratio of 20% or higher and lower than 40%); b: directly sowed rice plant, effect grade on crop [5]: 5 (Herbicidal ratio of 90% or more (almost completely withered)); H: Echinochloa crus-galli var. crus-galli, herbicidal effect grade ([6]; 320 g/ha): 5 (Herbicidal ratio of 90% or more (almost completely withered)); K: Lolium multiflorum Lam., herbicidal effect grade ([7]; 320 g/ha): 4 (Herbicidal ratio of 70% or higher and lower than 90%); Herbicidal effect grade, B: Scirpus juncoides [8]: 5 (Herbicidal ratio of 90% or more (almost completely withered)); c: corn, effect on crop (criteria 0-5) [9]: 3 (Herbicidal ratio of 40% or higher and lower than 70%); g: rapeseed, effect on crop (criteria 0-5) [10]: 5 (Herbicidal ratio of 90% or more (almost completely withered)); F: Digitaria ciliaris, herbicidal effect grade ([11]; 320 g/ha): 4 (Herbicidal ratio of 70% or higher and lower than 90%); I: Avena fatua, herbicidal effect grade ([12]; 320 g/ha): 0 (Herbicidal ratio of 5% or lower (almost no effect)); I: Avena fatua, herbicidal effect (criteria 0-5) [13]: 5 (Herbicidal ratio of 90% or more (almost completely withered)); O: Chenopodium album, herbicidal effect grade ([14]; 320 g/ha): 0 (Herbicidal ratio of 5% or lower (almost no effect)); F: Digitaria ciliaris, herbicidal effect (criteria 0-5) [15]: 5 (Herbicidal ratio of 90% or more (almost completely withered)); e: wheat, effect on crop (criteria 0-5) [16]: 5 (Herbicidal ratio of 90% or more (almost completely withered)); P: Stellaria media, herbicidal effect (criteria 0-5) [17]: 3 (Herbicidal ratio of 40% or higher and lower than 70%)
